Measurements published in PubChem BioAssay (NCI).
Values joined by “and” are separate entries in the source; they are usually repeats but may differ in a detail not shown here. Identical values can stand only once.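 48-hour exposure; five concentrations; linearly interpolated endpoints. Abbreviation: GI50, concentration required for 50% inhibition of growth. At the TGI there is no net growth.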

Columns and labels:
Experiment in all cases: NCI-60 cell line screen, 48 h
SK-MEL-28 melanoma = system: SK-MEL-28 melanoma
SF-268 CNS = system: SF-268 CNS
OVCAR-4 ovarian = system: OVCAR-4 ovarian
HL-60(TB) leukemia = system: HL-60(TB) leukemia
786-0 renal = system: 786-0 renal
UO-31 renal = system: UO-31 renal
HOP-92 NSCLC = system: HOP-92 NSCLC
HCC-2998 colon = system: HCC-2998 colon
MCF7 breast = system: MCF7 breast
HS 578T breast = system: HS 578T breast

SMILES	TGI (SK-MEL-28 melanoma)	TGI (SF-268 CNS)	TGI (OVCAR-4 ovarian)	TGI (HL-60(TB) leukemia)	TGI (786-0 renal)	TGI (UO-31 renal)	TGI (HOP-92 NSCLC)	TGI (HCC-2998 colon)	TGI (MCF7 breast)	TGI (HS 578T breast)	GI50 (SK-MEL-28 melanoma)	GI50 (SF-268 CNS)	GI50 (OVCAR-4 ovarian)	GI50 (HL-60(TB) leukemia)	GI50 (786-0 renal)	GI50 (UO-31 renal)	GI50 (HOP-92 NSCLC)	GI50 (HCC-2998 colon)	GI50 (HS 578T breast)	GI50 (MCF7 breast)
C1=CC(=P(c2ccccc2)(c2ccccc2)c2ccccc2)C=C1	19.6 µM	75.1 µM	31.5 µM	9.01 µM	28.8 µM	30.8 µM	22.8 µM	24.3 µM	–	–	–	–	–	–	–	–	–	–	–	–
CC(C)Cc1cnc(CC(C)C)c(=O)[nH]1	> 100 µM	> 100 µM	> 100 µM	–	> 100 µM	> 100 µM	> 100 µM	> 100 µM	> 100 µM	> 100 µM	–	–	–	–	–	–	–	–	–	–
CN1CCCC2[C@@H]3CCC4c5nonc5CC[C@]4(C)C3CC[C@@]21C (stereo not given in full)	> 100 µM	–	> 100 µM	–	> 100 µM	> 100 µM	–	–	–	–	–	–	–	–	–	–	–	–	–	–
COc1ccc(-c2nc3ccccc3s2)cc1OC	> 100 µM	–	> 100 µM	> 100 µM	> 100 µM	> 100 µM	> 100 µM	–	–	> 100 µM	–	–	–	–	–	–	–	–	–	–
CCN(CC)C(=S)SSC(C)C	23.1 µM	37 µM	26.2 µM	29.8 µM	31.7 µM	24.1 µM	36.1 µM	31.1 µM	–	28.3 µM	11.1 µM	16.2 µM	13.4 µM	5.63 µM	17.3 µM	8.99 µM	15.2 µM	16.8 µM	0.936 µM	–
CC(=O)N1[C@H](C(=O)O)CS[C@H]1c1ccc(F)cc1	> 100 µM	> 100 µM	> 100 µM	> 100 µM	> 100 µM	> 100 µM	> 100 µM	> 100 µM	–	–	–	–	–	–	–	–	–	–	–	–
Cc1cccc(N2C(=O)/C(=C/C(Cl)=C/c3ccc([N+](=O)[O-])cc3)SC2=S)c1C	7 µM	–	> 100 µM	6.94 µM	4.68 µM	2.56 µM	–	3.54 µM	> 100 µM	> 100 µM	2.37 µM	–	1.46 µM	1.91 µM	2.07 µM	1.29 µM	–	1.72 µM	2.8 µM	0.786 µM
CC(C)(C)C#COC(=O)c1ccccc1	–	> 100 µM	> 100 µM	> 100 µM	> 100 µM	> 100 µM	–	> 100 µM	–	–	–	–	–	–	–	–	–	–	–	–
COC(=O)C(C(=O)C(=O)Nc1c(C)cccc1C(C)(C)C)c1nc2ccc(Cl)cc2[nH]c1=O (stereo not given)	> 100 µM	> 100 µM	> 100 µM	–	> 100 µM	> 100 µM	> 100 µM	> 100 µM	> 100 µM	> 100 µM	–	–	–	–	–	–	–	–	–	–
O=c1c(Cc2ccccc2)c(O)cc2n1CCC2	> 100 µM	> 100 µM	> 100 µM	–	> 100 µM	> 100 µM	> 100 µM	> 100 µM	–	–	–	–	–	–	–	–	–	–	–	–
N/N=C(/Cc1ccccc1)NNO	> 100 µM	> 100 µM	> 100 µM	> 100 µM	> 100 µM	–	> 100 µM	> 100 µM	–	–	–	–	–	–	–	–	–	–	–	–
COc1ccc2[nH]c(C(=O)N3CCN(C(=O)OCc4ccc5c(Cl)cc(Cl)c(O)c5n4)CC3)cc2c1	2.94 µM	3.02 µM	3.07 µM	2.85 µM	2.82 µM	2.17 µM	2.4 µM	3.32 µM	–	6.07 µM	1.58 µM	1.49 µM	1.53 µM	0.977 µM	1.37 µM	1.01 µM	0.864 µM	1.7 µM	1.87 µM	–
COc1cc(C)c2c(c1)CN1CN2Cc2cc(OC)cc(C)c21	–	> 100 µM	> 100 µM	64.2 µM	> 100 µM	85.5 µM	> 100 µM	–	–	–	–	–	–	–	–	–	–	–	–	–
O=C(c1ccccc1)C1N=NN(Cc2ccccc2[N+](=O)[O-])C1C(=O)c1ccccc1 (stereo not given)	> 100 µM	> 100 µM	> 100 µM	> 100 µM	> 100 µM	> 100 µM	> 100 µM	> 100 µM	–	–	–	–	–	–	–	–	–	–	–	–
Cc1ccc(C2=CC(=O)c3ccccc3C2=O)n1-c1ccccc1	> 100 µM	> 100 µM	96.6 µM	94.2 µM	> 100 µM	–	–	> 100 µM	–	–	–	–	–	–	–	–	–	–	–	–
CC(=O)Nc1ccc(C2CC(c3ccc([N+](=O)[O-])cc3)=Nc3ccccc3S2)cc1 (stereo not given)	38.4 µM	77.9 µM	42.2 µM	49.7 µM	31.1 µM	27.8 µM	–	–	–	–	–	–	–	–	–	–	–	–	–	–
Cc1cc2c(c(C(=O)O)c1C)-c1cccc(Cl)c1C2=O	> 100 µM	> 100 µM	> 100 µM	–	> 100 µM	> 100 µM	–	> 100 µM	–	–	–	–	–	–	–	–	–	–	–	–
Cn1c(=O)oc2cc(C3CCC(=O)N3Cc3csc(-c4ccccc4)n3)ccc21 (stereo not given)	> 100 µM	> 100 µM	> 100 µM	> 100 µM	> 100 µM	> 100 µM	–	> 100 µM	–	–	–	–	–	–	–	–	–	–	–	–
Cc1cc(Cl)ccc1NC(=O)CCCC(=O)C1C/C(=N/O)CC/C1=N\O (stereo not given)	> 100 µM	> 100 µM	> 100 µM	> 100 µM	> 100 µM	> 100 µM	> 100 µM	> 100 µM	–	–	–	–	–	–	–	–	–	–	–	–
CCOc1c(Br)cc(Br)cc1C=C(C#N)C#N	> 10 µM	> 10 µM	> 10 µM	1.19 µM	> 10 µM	–	> 10 µM	> 10 µM	> 10 µM	> 10 µM	–	–	–	–	–	–	–	–	–	–
Cc1cc(=O)[nH]c(NNC(C#N)c2cccc([N+](=O)[O-])c2)n1 (stereo not given)	> 100 µM	> 100 µM	> 100 µM	> 100 µM	> 100 µM	> 100 µM	> 100 µM	–	–	–	–	–	–	–	–	–	–	–	–	–
CCOc1ccc(NC(=O)/C(CC(=O)c2c[n+](=O)c3ccccc3n2[O-])=N\OCCCc2ccccc2)cc1	> 100 µM	> 100 µM	> 100 µM	> 100 µM	> 100 µM	> 100 µM	99.6 µM	> 100 µM	–	–	–	–	–	–	–	–	–	–	–	–
CN(C)CCC(=O)Nc1ccc(-n2cc(-c3cccc(NC(=S)Nc4cccc(-c5cn(-c6ccc(NC(=O)CCN(C)C)cc6)nn5)c4)c3)nn2)cc1	53.4 µM	75.6 µM	> 100 µM	> 100 µM	> 100 µM	–	53.9 µM	> 100 µM	40.3 µM	> 100 µM	24.5 µM	24.5 µM	35.4 µM	> 100 µM	> 100 µM	–	19.5 µM	> 100 µM	33.4 µM	3.25 µM
c1ccc2c(c1)[nH]c1c2nc2ccccn21	> 100 µM	> 100 µM	> 100 µM	> 100 µM	> 100 µM	> 100 µM	> 100 µM	> 100 µM	–	–	–	–	–	42.8 µM and > 100 µM	–	–	–	–	–	–
